Test results from ChEMBL document CHEMBL1201862, “PubChem BioAssay data set” (2004).
Active and inactive are the calls of the source.

Assays:
[1] = fluconazole-exposed Candida albicans growth modulators – fluorescence, retest, confirmation (AID 2467); type: functional, cell-based
[2] = HepG2 cell cytotoxicity, dose response, cytotoxicity control for non-replicating M. tuberculosis project (AID 489018); type: functional; conditions: Mycobacterium tuberculosis
[3] = Vero E6 cell cytotoxicity, dose response, cytotoxicity control for non-replicating M. tuberculosis project, secondary assay (AID 492998); type: functional, VeroE6; conditions: Vero C1008
[4] = NIH-3T3 fibroblast cytotoxicity, dose response, cytotoxicity control, cell-based, fluorescence, Alamar Blue, secondary assay (AID 2327); type: functional;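 note: NIH-3T3 mouse fibroblasts cultured with fluconazole at 8 µg/mL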
[5] = THP-1 cell cytotoxicity, dose response, cytotoxicity control for non-replicating M. tuberculosis project (AID 489025); type: functional
[6] = cells; type: functional
[7] = target: Serine/threonine-protein phosphatase (Candida dubliniensis (strain CD36 / CBS 7987 / NCPF 3949 / NRRLY-17841) (Yeast), UniProt B9W6M3); assay: blockers of CaCl2-induced CDRE-lacZ signaling – S. cerevisiae, luminescence, secondary, dose response (AID 2388); type: functional, cell-based;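 note: yeast reporter cells carrying a calcineurin-responsive lacZ construct stimulated with calcium chloride; luminescent beta-galactosidase reporter signal in whole cells rather than isolated phosphatase activity; potency for inhibition where a drop in reporter signal means calcineurin blockade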
[8] = target: ATP-dependent molecular chaperone HSP82 (Candida albicans (strain WO-1) (Yeast), UniProt C4YTQ8); assay: steroid-induced GRE reporter decrease in yeast – S. cerevisiae, luminescence, Hsp90 inhibitor project, dose response (AID 2400); type: functional, cell-based;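 note: beta-galactosidase luminescence from glucocorticoid response element reporter as proxy for Hsp90 function; inhibitor potency where signal loss means Hsp90 inhibition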
[9] = target: Cysteine protease ATG4B (Homo sapiens, UniProt Q9Y4P1); type: functional;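 note: Fluorescence-based dose-response confirmation assay measuring inhibition of ATG4B activity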
[10] = target: Phospholipase A2 (Homo sapiens, UniProt P04054); type: functional;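 note: confirmatory dose-response counterscreen on phospholipase A2, testing hits that came from an ultra-high-throughput screen for ATG4B inhibitors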
[11] = test system: MDCK; assay: MDCK cell cytotoxicity, dose response, cytotoxicity control (AID 540296); type: functional; conditions: Canis lupus familiaris
[12] = test system: MDCK; assay: antiviral activity against H1N1 influenza, dose response, cell-based, strain KY180 (AID 540254); type: functional; conditions: Canis lupus familiaris
[13] = test system: MDCK; assay: antiviral activity against H1N1 influenza, dose response, cell-based, strain KY136 (AID 540257); type: functional; conditions: Canis lupus familiaris
[14] = test system: Vero; assay: Vero E6 cell cytotoxicity, dose response, cytotoxicity control (AID 540298); type: functional; conditions: Chlorocebus sabaeus
[15] = IGROV1 cell killing – plate reader, dry powder samples, PAX8 inhibitor project, dose response (AID 743043); type: functional, cell-based; conditions: IGROV-1
[16] = inhibitors acting on PAX2 in cells – cell-based, plate reader, dry powder samples, selectivity assay for PAX8 inhibitor project, dose response (AID 743048); type: functional;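 note: HEK293 cells carrying a WT1 promoter luciferase reporter driven by expressed Pax2; potency is for inhibition of Pax2 driven reporter signal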
[17] = toxicity toward immortalized ovarian surface epithelium – cell-based, plate reader, dry powder samples, cytotoxicity control for PAX8 inhibitor project, dose response (AID 743045); type: functional
[18] = A2780 cell killing – plate reader, dry powder samples, cytotoxicity control, dose response (AID 743046); type: functional, cell-based
[19] = COV434 cell viability loss – plate reader, dry powder, SA7, cytotoxicity control for PAX8 inhibitor project, dose response (AID 743145); type: functional, cell-based
[20] = viability of HCT116 lacking mutant beta-catenin – cell-based, human colon tumor, dose response (AID 1045); type: functional;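 note: HCT116 colon tumor cells with beta catenin knocked out; cells exposed to compound for 60 hours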
[21] = target: Paired box protein Pax-8 (Homo sapiens, UniProt Q06710); assay: PAX8 transcriptional activity inhibition in RMG-I – RMG-I cells, luciferase, cherry-pick, dose response (AID 687027); type: functional, cell-based;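 note: luciferase reporter driven by Pax8 target thyroperoxidase promoter measured by SteadyGlo luminescence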
[22] = test system: A-375; assay: proliferation inhibition in MITF-low A375 cells – cell-based, cherry-pick samples, set 2, counter-screen for MITF modulator project, dose response (AID 540335); type: functional; conditions: Homo sapiens
[23] = OVCAR-3 cell viability loss – plate reader, dry powder samples, PAX8 inhibitor project, dose response (AID 743044); type: functional, cell-based
[24] = COV362 cell viability loss – plate reader, dry powder, SA12, cytotoxicity control for PAX8 inhibitor project, dose response (AID 743144); type: functional, cell-based
[25] = PAX5 cellular inhibition readout – cell-based, plate reader, dry powder samples, selectivity assay for PAX8 inhibitor project, dose response (AID 743047); type: functional;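 note: HEK293 cells carrying a Pax5 driven CD19 promoter luciferase reporter; potency of inhibitors that lower reporter luminescence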
[26] = OVCAR4 cell viability loss – plate reader, dry powder, SA11, cytotoxicity control for PAX8 inhibitor project, dose response (AID 743150); type: functional, cell-based; conditions: OVCAR-4
[27] = viability of PTEN-deleted HCT116 cells – cell-based, HCT116 PTEN knockout, dose response (AID 1047); type: functional;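 note: HCT116 colon tumor cells with PTEN knocked out; cells exposed to compound for 60 hours before readout; potency for loss of cell viability measured by luminescence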
[28] = OV-90 cell viability loss – plate reader, dry powder, SA8, PAX8 inhibitor project, dose response (AID 743149); type: functional, cell-based
[29] = target: T1, Microphthalmia-associated transcription factor (Homo sapiens, UniProt O75030); assay: reducers of TRPM1 reporter luminescence, concentration series – cell-based, SK-MEL-5, cherry-picked, set 3, MITF inhibitor project, dose response (AID 493073); type: functional;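 note: SK-MEL-5 melanoma cells with luciferase driven by the MITF target TRPM1 promoter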
T1 sequence (O75030 whole entry): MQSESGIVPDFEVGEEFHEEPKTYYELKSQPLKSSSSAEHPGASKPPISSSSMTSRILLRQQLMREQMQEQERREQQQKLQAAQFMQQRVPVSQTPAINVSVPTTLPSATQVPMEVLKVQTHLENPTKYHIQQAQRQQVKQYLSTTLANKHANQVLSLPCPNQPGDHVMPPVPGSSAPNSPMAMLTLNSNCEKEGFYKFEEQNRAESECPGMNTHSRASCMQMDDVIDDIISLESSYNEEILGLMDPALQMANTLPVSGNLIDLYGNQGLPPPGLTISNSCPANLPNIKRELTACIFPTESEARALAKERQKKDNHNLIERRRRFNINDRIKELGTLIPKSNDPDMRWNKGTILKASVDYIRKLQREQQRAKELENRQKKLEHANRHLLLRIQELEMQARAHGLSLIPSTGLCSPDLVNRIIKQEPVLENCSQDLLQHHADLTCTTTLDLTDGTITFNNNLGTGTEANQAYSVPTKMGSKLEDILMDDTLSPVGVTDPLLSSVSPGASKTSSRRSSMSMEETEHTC

[30] = PAX8-dependent cell viability loss – plate reader, dry powder, dose response (AID 743049); type: functional, cell-based
[31] = target: T2, Heat shock factor protein 1 (Mus musculus, UniProt P38532); assay: decrease of HSF1-responsive luciferase luminescence – cell-based, NIH3T3, dose retest, confirmation (AID 2382); type: functional;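 note: NIH3T3 fibroblasts with HSF1-driven luciferase reporter stressed by proteasome inhibitor MG132; luminescence from HSF1-driven luciferase expression after 8 hours of MG132 stress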
T2 sequence (P38532 whole entry): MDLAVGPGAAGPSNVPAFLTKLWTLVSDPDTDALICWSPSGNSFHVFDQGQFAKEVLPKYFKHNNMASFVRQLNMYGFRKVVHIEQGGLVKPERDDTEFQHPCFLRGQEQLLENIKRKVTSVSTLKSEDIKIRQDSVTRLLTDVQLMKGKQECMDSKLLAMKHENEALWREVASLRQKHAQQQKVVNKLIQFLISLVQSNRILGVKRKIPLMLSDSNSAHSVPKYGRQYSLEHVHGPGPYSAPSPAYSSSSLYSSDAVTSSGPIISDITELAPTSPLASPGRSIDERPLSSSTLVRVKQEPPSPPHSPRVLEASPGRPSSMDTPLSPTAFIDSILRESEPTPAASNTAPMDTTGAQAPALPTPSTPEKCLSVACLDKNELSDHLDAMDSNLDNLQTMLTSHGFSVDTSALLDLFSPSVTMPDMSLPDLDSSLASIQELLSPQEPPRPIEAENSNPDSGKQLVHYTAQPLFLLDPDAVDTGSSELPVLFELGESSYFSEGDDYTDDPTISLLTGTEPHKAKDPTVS

[32] = target: Dual specificity protein kinase CLK1 (Homo sapiens, UniProt P49759); assay: inhibition of human CLK1 activity – biochemical, cherry-picked samples, selectivity assay for Dyrk1A inhibitor project, dose response (AID 588811)
[33] = target: Prothrombin (Homo sapiens, UniProt P00734); assay: Thrombin 1536 HTS Dose Response Confirmation. [Related pubchem assays: 1046 (Thrombin 1536 HTS; hits were confirmed in this assay)]; type: functional
[34] = target: Dual specificity tyrosine-phosphorylation-regulated kinase 1A (Rattus norvegicus, UniProt Q63470); type: biochemical, Homo sapiens

Chain of Serine/threonine-protein phosphatase (B9W6M3 whole entry): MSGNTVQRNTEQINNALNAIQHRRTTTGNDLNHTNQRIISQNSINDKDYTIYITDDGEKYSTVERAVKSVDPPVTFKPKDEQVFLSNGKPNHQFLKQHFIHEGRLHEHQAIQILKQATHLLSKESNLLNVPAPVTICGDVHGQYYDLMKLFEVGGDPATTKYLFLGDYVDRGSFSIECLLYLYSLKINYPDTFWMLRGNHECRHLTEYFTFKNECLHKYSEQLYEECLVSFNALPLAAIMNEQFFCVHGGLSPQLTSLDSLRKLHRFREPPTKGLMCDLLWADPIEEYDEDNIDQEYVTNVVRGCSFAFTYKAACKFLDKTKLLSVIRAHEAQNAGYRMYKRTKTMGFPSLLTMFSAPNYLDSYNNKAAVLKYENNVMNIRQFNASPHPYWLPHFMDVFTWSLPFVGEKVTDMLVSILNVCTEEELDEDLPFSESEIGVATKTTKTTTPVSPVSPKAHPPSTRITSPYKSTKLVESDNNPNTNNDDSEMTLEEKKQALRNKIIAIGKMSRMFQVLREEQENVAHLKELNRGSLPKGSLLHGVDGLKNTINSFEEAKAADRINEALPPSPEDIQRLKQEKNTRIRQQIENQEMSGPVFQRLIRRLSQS
Chain of Phospholipase A2 (P04054 whole entry): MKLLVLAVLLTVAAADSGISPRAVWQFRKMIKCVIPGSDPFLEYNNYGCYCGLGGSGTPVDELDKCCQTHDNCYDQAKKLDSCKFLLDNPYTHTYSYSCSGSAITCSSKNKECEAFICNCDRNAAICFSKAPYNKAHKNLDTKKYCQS
Chain of Dual specificity protein kinase CLK1 (P49759 whole entry): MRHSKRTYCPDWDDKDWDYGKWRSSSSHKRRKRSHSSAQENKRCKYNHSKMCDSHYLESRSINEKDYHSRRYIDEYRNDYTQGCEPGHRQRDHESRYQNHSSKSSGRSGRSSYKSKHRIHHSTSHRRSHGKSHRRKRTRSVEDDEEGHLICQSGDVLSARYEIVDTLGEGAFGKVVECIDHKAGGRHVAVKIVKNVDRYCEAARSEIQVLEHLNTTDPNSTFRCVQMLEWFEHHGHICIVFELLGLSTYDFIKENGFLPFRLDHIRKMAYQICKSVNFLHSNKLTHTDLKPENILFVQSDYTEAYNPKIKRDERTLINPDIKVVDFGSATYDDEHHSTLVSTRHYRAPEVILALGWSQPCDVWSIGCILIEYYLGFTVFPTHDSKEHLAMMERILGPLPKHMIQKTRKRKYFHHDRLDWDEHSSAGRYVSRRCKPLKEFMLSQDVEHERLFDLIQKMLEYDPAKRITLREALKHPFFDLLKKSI
Chain of ATP-dependent molecular chaperone HSP82 (C4YTQ8 whole entry): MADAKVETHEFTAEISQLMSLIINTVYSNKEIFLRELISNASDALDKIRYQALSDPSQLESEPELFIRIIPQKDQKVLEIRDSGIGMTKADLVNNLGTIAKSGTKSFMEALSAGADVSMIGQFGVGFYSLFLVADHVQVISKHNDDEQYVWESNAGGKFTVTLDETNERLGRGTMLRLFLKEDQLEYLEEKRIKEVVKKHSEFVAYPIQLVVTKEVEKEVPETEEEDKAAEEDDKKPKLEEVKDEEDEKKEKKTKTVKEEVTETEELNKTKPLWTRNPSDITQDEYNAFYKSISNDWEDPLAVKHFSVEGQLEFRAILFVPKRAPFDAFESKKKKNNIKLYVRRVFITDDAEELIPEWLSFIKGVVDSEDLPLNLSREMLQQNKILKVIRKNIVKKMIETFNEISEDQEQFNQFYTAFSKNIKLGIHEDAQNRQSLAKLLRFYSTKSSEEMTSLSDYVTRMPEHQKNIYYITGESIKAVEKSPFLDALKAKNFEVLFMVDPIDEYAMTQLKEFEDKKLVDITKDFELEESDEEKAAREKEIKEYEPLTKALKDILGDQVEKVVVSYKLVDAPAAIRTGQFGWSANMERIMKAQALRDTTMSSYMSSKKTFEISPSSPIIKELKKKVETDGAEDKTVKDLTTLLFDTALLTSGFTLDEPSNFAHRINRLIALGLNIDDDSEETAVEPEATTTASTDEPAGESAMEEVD
Chain of Cysteine protease ATG4B (Q9Y4P1 whole entry): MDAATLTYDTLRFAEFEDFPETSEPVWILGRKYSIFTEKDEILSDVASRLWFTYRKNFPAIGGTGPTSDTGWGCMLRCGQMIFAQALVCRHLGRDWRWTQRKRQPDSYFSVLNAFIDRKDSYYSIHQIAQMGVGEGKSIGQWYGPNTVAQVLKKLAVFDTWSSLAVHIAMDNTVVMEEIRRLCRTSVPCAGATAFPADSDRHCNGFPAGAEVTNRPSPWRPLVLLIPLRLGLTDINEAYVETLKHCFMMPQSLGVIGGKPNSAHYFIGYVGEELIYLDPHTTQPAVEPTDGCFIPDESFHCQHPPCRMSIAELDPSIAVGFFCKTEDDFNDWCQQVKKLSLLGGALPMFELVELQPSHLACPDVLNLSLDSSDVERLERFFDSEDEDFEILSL
Chain of Paired box protein Pax-8 (Q06710 whole entry): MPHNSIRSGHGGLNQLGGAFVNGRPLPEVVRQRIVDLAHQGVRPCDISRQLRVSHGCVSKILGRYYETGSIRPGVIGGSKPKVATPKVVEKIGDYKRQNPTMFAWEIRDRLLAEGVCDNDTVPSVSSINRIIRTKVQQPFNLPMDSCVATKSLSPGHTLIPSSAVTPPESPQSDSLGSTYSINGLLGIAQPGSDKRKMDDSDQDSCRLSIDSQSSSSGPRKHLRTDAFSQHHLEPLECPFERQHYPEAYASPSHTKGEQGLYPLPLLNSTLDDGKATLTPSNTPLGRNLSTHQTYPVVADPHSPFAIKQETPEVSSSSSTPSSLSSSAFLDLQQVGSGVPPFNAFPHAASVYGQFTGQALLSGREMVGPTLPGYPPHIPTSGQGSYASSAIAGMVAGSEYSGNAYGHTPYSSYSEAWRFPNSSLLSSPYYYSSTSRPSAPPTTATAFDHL

Cc1ccc(C)c(-c2nnc(NC(=O)c3ccco3)o2)c1
active: EC50 [1] 0.695 µM | CC50 [2] > 20 µM | CC50 [3] 15.8 µM | CC50 [5] > 40 µM | IC50 [6] 2.58 µM
inactive: EC50 [4] > 160 µM | EC50 [7] > 180 µM | EC50 [8] > 160 µM

COc1ccc(C(=O)Nc2cc(C(=O)c3ccccc3)c(C)oc2=O)cc1
active: IC50 [9] 11.3 µM | IC50 [10] 11.7 µM

Cc1nnc(NC(=O)CSc2nccn2-c2cccc(C)c2C)s1
active: CC50 [11] > 40 µM | IC50 [12] 10.4 µM | IC50 [13] 5.1 µM | CC50 [14] > 40 µM

COc1ccc(Br)cc1/C=C/C(=O)c1ccc(NC(C)=O)cc1
active: AC50 [15] 15 µM | AC50 [16] 7.73 µM | AC50 [17] 9.22 µM | AC50 [18] 17.6 µM | AC50 [19] 13.6 µM | EC50 [20] 1.04 µM | AC50 [21] 3.8 µM | AC50 [22] 33.2 µM | AC50 [23] 8.78 µM | AC50 [24] 8.41 µM | AC50 [25] 7.08 µM | AC50 [26] 13.7 µM | EC50 [27] 1.12 µM | AC50 [28] 17.9 µM | AC50 [29] 4.64 µM | AC50 [30] 11.7 µM

COc1ccc(-c2n[nH]cc2-c2ccc3c(c2)OCCO3)c(O)c1
> 50 µM (not active): IC50 [33]
active: EC50 [31] 2.8 µM | AC50 [32] 8.33 µM | AC50 [34] 12 µM
